Experiment: xn = mol fraction of the nth substance listed
Conditions: 98 kPa, Liquid; for speed of sound: Frequency=3 MHz, Single path-length method; for mass density: Vibrating tube method

Cn1ccnc1 [1-methylimidazole] + CO
Conditions | mass density, 288.15 K [kg/m3] | mass density, 298.15 K [kg/m3] | mass density, 308.15 K [kg/m3] | mass density, 318.15 K [kg/m3] | mass density, 328.15 K [kg/m3] | speed of sound, 288.15 K [m/s] | speed of sound, 298.15 K [m/s] | speed of sound, 308.15 K [m/s] | speed of sound, 318.15 K [m/s] | speed of sound, 328.15 K [m/s]
x1 = 0.0507 | 822.81 | 813.46 | 804.03 | 794.49 | 784.81 | 1185.2 | 1151.8 | 1118.6 | 1085.8 | 1053.3
x1 = 0.1009 | 846.62 | 837.31 | 827.92 | 818.41 | 808.78 | 1230.7 | 1196.9 | 1163.2 | 1130 | 1097.2
x1 = 0.1961 | 884.53 | 875.26 | 865.91 | 856.48 | 846.92 | 1305.4 | 1270.8 | 1236.4 | 1202.4 | 1168.7
x1 = 0.296 | 918.09 | 908.87 | 899.58 | 890.21 | 880.75 | 1374 | 1338.8 | 1303.7 | 1268.9 | 1234.5
x1 = 0.3988 | 946.5 | 937.33 | 928.11 | 918.82 | 909.45 | 1434.1 | 1398.4 | 1362.7 | 1327.4 | 1292.4
x1 = 0.5058 | 969.95 | 960.86 | 951.71 | 942.51 | 933.23 | 1484.7 | 1448.5 | 1412.4 | 1376.6 | 1341.1
x1 = 0.6096 | 989.14 | 980.11 | 971.04 | 961.92 | 952.74 | 1526.2 | 1489.6 | 1453 | 1416.8 | 1380.9
x1 = 0.7023 | 1003.69 | 994.72 | 985.72 | 976.66 | 967.55 | 1558 | 1521.2 | 1484.3 | 1447.8 | 1411.7
x1 = 0.8018 | 1017.21 | 1008.3 | 999.35 | 990.36 | 981.32 | 1587.5 | 1550.4 | 1513.3 | 1476.5 | 1440.5
x1 = 0.8994 | 1028.89 | 1020.02 | 1011.12 | 1002.18 | 993.19 | 1612.9 | 1575.6 | 1538.2 | 1501.2 | 1464.5
x1 = 0.951 | 1034.48 | 1025.61 | 1016.76 | 1007.87 | 998.91 | 1625 | 1587.6 | 1550.1 | 1513 | 1476.2
x1 = 1 | 1039.36 | 1030.52 | 1021.66 | 1012.76 | 1003.83 | 1634.1 | 1596.5 | 1559 | 1521.8 | 1485

Cn1ccnc1 [1-methylimidazole] + O
Conditions | mass density, 288.15 K [kg/m3] | mass density, 298.15 K [kg/m3] | mass density, 308.15 K [kg/m3] | mass density, 318.15 K [kg/m3] | mass density, 328.15 K [kg/m3] | speed of sound, 288.15 K [m/s] | speed of sound, 298.15 K [m/s] | speed of sound, 308.15 K [m/s] | speed of sound, 318.15 K [m/s] | speed of sound, 328.15 K [m/s]
x1 = 0.0521 | 1011.8 | 1007.6 | 1002.76 | 997.34 | 991.41 | 1581.3 | 1587 | 1588.8 | 1586.8 | 1581.4
x1 = 0.1076 | 1022.54 | 1016.8 | 1010.63 | 1004.04 | 997.06 | 1645.6 | 1636.9 | 1625.7 | 1612.2 | 1596.3
x1 = 0.2035 | 1035.77 | 1028.46 | 1020.89 | 1013.06 | 1004.95 | 1705.3 | 1682.6 | 1658.4 | 1633.1 | 1606.6
x1 = 0.3041 | 1044.45 | 1036.28 | 1027.92 | 1019.36 | 1010.6 | 1731.5 | 1707.2 | 1669.9 | 1638.1 | 1605.7
x1 = 0.4017 | 1048.95 | 1040.34 | 1031.57 | 1022.64 | 1013.55 | 1735.5 | 1701.4 | 1667.7 | 1631.6 | 1596.3
x1 = 0.5053 | 1050.2 | 1041.41 | 1032.48 | 1023.41 | 1014.19 | 1723.2 | 1687.5 | 1651.3 | 1615 | 1578.4
x1 = 0.6052 | 1048.91 | 1040.12 | 1031.21 | 1022.16 | 1012.98 | 1702.4 | 1666.6 | 1630.2 | 1593.7 | 1557
x1 = 0.7018 | 1046.64 | 1037.87 | 1028.99 | 1020.01 | 1010.92 | 1681.9 | 1645.8 | 1609.4 | 1573 | 1536.5
x1 = 0.8044 | 1043.96 | 1035.17 | 1026.32 | 1017.39 | 1008.38 | 1662.5 | 1626 | 1589.3 | 1552.7 | 1516.3
x1 = 0.9031 | 1041.64 | 1032.83 | 1023.98 | 1015.07 | 1006.1 | 1647.8 | 1610.9 | 1573.7 | 1536.9 | 1500.3
x1 = 0.9555 | 1040.49 | 1031.66 | 1022.8 | 1013.91 | 1004.96 | 1640.8 | 1603.8 | 1566.4 | 1529.3 | 1492.6
x1 = 1 | 1039.36 | 1030.52 | 1021.66 | 1012.76 | 1003.83 | 1634.1 | 1596.5 | 1559 | 1521.8 | 1485
